Values quoted from earlier work, collected in patent US10683273B2, “Compounds as DNA probes, methods and applications thereof” (JAWAHARLAL NEHRU CENTRE FOR ADVANCED SCIENTIFIC RESEARCH, priority 2015, dated 2020).

What was measured:
[1] = literature values (footnotes a, b); cited from earlier work
DNA = conditions: literature values (footnotes a, b); cited from earlier work

CN(C)CCCN(CCCN(C)C)c1cc(C=C2Sc3ccccc3N2C)c2ccccc2[n+]1-c1ccccc1 [Picogreen]
Stokes shift in absence of DNA [1]: 30 nm
Stokes shift in presence of DNA (DNA): 21 nm

CN1C(=Cc2cc[n+](C)c3ccccc23)Oc2ccccc21 [Oxazole yellow (YO), Oxazole yellow]
Stokes shift in absence of DNA [1]: 100 nm
Stokes shift in presence of DNA (DNA): 19 nm

CN1C(=Cc2cc[n+](C)c3ccccc23)Sc2ccccc21 [Thiazole orange (TO), Thiazole orange]
Stokes shift in absence of DNA [1]: 139 nm
Stokes shift in presence of DNA (DNA): 18 nm

CCCN(CCCN(C)C)c1cc(/C=C2/Sc3ccccc3N2C)c2ccccc2[n+]1-c1ccccc1 [SYBR Green 1]
Stokes shift in absence of DNA [1]: 36 nm
Stokes shift in presence of DNA (DNA): 26 nm

CN1/C(=C/c2cc[n+](CCC[N+](C)(C)CCC[N+](C)(C)CCC[n+]3ccc(/C=C4/Oc5ccccc5N4C)c4ccccc43)c3ccccc23)Oc2ccccc21.[I-].[I-].[I-].[I-] [YOYO-1]
Stokes shift in absence of DNA [1]: 106 nm
Stokes shift in presence of DNA (DNA): 20 nm

CN1/C(=C/c2cc[n+](CCC[N+](C)(C)CCC[N+](C)(C)CCC[n+]3ccc(/C=C4\Sc5ccccc5N4C)c4ccccc43)c3ccccc23)Sc2ccccc21.[I-].[I-].[I-].[I-] [TOTO-1]
Stokes shift in absence of DNA [1]: 149 nm
Stokes shift in presence of DNA (DNA): 19 nm
